Earlier results in patent US20080044504A1, “Pomegranate Juice, Pomegranate Juice Powder and Process for Producing the Powder” (Marukin Bio, Inc., priority 2004, published 2008).
Where two headings read alike, the source gives them in different places.

Test system: estrogen receptor

Compound | binding to the estrogen receptor (binding rate of DES defined as 100%) [%] | binding to the estrogen receptor [%]
O=c1c(-c2ccc(O)cc2)coc2cc(O)ccc12 [daidzein] | 0.04 | –
O=c1c(-c2ccc(O)cc2)coc2cc(O)cc(O)c12 [genistein] | – | 1.7
